In patent publication US20080138837A1, “Methods and kits for detecting and measuring ADAMTS13/FXI complexes” (priority 2004, published 2008):
Ends that are not written are not given here. * marks the point of attachment. DABCYL = CN(C)c1ccc(/N=N/c2ccc(C(=O)*)cc2)cc1; EDANS = O=S(=O)(O)c1cccc2c(NCCN*)cccc12; AMC = Cc1cc(=O)oc2cc(N*)ccc12

How the values were obtained:
platelet ADAMTS13 [1] = assay: Enhancement of platelet ADAMTS13 activity by treatment with FXIa; assay type: biochemical, human; conditions: 0.3 ng/ml FXIa, FIG. 11
Protocol: Washed normal platelets from 200 μL of PRP were resuspended in 1 ml of assay buffer. Washed platelets from 1 ml of PRP from a subject with acquired TTP were resuspended in 50 μL of assay buffer. Normal or TTP platelets (10 μl) were added to 10 mM Tris-HCl pH 8.0 assay buffer (80 μl) or assay buffer containing 0.3 ng/ml of FXIa (80 μl). LVY-AMC substrate (10 μl of 2 mM) was added and the fluorescence was monitored (Ex 360 nm/Em 440 nm) for 1500 seconds. FXIa at 0.3 ng/ml was used as a control.

ADAMTS13 = ADAMTS13 activity in PRP using peptidyl substrates; assay type: biochemical, human; conditions: normal PRP 20 μl, 0.8 mM substrate, 37° C., 10 mM Tris-HCl pH 8.0, Ex 360 nm/Em 460 nm, FIG. 3
Protocol: (§1) Blood was collected by venopuncture into collection tubes containing 0.12 M sodium citrate, an anti-coagulant. The citrated blood was centrifuged at 700 rpm for 10 minutes. The supernatant was removed and saved as the platelet rich plasma (PRP) fraction. The PRP was centrifuged at 10,000 rpm for 20 minutes. The supernatant was removed and saved as the platelet poor plasma (PPP) fraction. The pellet contained the platelets, which were washed by resuspending in 10 mM Tris-HCl pH 8.0 buffer and centrifuging at 10,000 rpm for 10 minutes. The isolated platelets were resuspended in buffer and used in experiments.
As discussed above, Furlan et al. reported that some peptidyl-pNA moieties, such as XLY-pNA and XVY-pNA, were not substrates for ADAMTS13. We prepared LVY-pNA and tested it for its ability to be cleaved by ADAMTS13. The results shown in FIG. 2 confirm the findings of Furlan et al., i.e., LVY-pNA was not cleaved by ADAMTS13.
In order to determine the effect of modifying the length of the peptide sequence conjugated to the AMC fluorochrome, normal PRP (20 μl) was incubated at 37° C. with a final concentration of 0.8 mM Suc-LLVY-AMC or LVY-AMC in 10 mM Tris-HCl pH 8.0 buffer in total volume of 200 μl. Fluorescence was measured using a microtiter fluorophotometric plate reader (Ex 360 nm/Em 460 nm).

[2] = tested on: form of ADAMTS13 found on platelets; assay: ADAMTS13 activity on isolated platelets using a FRET substrate; assay type: biochemical, human; conditions: 8 μg/ml substrate, 37° C., Ex 360 nm/Em 440 nm, FIG. 4
Protocol: as §1
ADAMTS13 activity was measured using a fluorescent substrate attached to a donor moiety and an acceptor moiety that functions by fluorescence resonance energy transfer (FRET). The ADAMTS13 selective substrate, NH2-Arg-Lys(DABCYL)-NLVYMVTGD(EDANS)-Arg-COOH, was used in this example. […] The intact peptidyl substrate has low fluorescence, due to quenching of the […]. Cleavage of the substrate between the tyrosine and methionine of the peptide sequence results in an increase in fluorescence.
Isolated platelets in 10 mM Tris-HCl pH 8.0 assay buffer were incubated with a final concentration of 8 μg/ml of the FRET substrate at 37° C. The fluorescence was measured in a spectrofluorometric plate reader (Ex 360 nm/Em 440 nm). […]

platelet ADAMTS13 [3] = tested on: T1, platelet ADAMTS13
T1 sequence: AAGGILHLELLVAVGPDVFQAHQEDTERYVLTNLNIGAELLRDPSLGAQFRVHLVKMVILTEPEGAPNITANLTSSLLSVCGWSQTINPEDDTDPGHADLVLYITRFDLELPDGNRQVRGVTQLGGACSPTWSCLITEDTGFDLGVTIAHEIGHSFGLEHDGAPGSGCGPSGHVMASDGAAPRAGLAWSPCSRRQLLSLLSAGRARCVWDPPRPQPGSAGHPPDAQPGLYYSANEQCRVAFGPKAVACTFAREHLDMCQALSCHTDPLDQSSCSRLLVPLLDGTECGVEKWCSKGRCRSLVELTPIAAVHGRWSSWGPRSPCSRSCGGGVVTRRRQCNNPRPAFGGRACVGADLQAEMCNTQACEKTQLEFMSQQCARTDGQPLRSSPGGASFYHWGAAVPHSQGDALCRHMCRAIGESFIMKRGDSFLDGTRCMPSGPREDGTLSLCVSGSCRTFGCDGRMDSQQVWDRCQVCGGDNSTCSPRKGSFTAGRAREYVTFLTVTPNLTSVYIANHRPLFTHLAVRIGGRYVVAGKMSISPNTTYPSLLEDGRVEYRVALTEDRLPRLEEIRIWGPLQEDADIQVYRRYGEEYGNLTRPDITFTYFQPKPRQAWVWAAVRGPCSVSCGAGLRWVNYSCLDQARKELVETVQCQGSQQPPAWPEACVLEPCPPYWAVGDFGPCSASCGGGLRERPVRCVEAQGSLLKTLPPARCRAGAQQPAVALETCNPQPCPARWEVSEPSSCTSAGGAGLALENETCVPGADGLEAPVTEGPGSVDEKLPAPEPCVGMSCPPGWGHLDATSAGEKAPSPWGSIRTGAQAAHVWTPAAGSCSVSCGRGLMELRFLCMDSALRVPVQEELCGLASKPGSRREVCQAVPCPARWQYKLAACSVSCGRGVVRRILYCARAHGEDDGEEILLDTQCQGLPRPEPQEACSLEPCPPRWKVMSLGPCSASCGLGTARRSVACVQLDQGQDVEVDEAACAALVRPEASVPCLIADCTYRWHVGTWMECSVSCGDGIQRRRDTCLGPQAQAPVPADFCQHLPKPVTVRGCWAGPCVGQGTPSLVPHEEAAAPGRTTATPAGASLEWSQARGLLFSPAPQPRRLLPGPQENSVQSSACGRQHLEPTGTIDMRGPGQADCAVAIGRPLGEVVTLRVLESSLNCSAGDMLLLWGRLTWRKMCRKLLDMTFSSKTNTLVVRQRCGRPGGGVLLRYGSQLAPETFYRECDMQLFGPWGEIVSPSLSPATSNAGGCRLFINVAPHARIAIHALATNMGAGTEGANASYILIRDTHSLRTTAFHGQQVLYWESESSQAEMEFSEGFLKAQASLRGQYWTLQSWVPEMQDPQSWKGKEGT

Leu-Val-Tyr-AMC = target: T2, Leu-Val-Tyr-AMC
T2 chain: LVY

[4] = target: T3, NH2-Arg-Lys(DABCYL)-NLVYMVTGD(EDANS)-Arg-COOH
T3 chain: RKNLVYMVTGDR

Suc-Leu-Leu-Val-Tyr-AMC = target: T4, Suc-Leu-Leu-Val-Tyr-AMC
T4 chain: LLVY

## FXIa: activated Factor XI, plasma serine protease
Platelet ADAMTS13 [1]; normal platelets, 1500 seconds
  increase of ADAMTS13 activity towards LVY-AMC substrate upon treatment of platelets with FXIa: approximately 8 fold
Platelet ADAMTS13 [1]; platelets from PRP of an acquired TTP patient, compared with normal individual
  enhancement of activity of platelets by treatment with FXIa: much lesser extent

## Leu-Val-Tyr-AMC (Leu-Val-Tyr-{AMC}) [LVY-AMC, fluorogenic peptidyl substrate from Bachem Bioscience Inc; also made by QPR]
ADAMTS13
  cleavage of peptidyl-AMC substrate by ADAMTS13 in PRP: cleaved

## NH2-Arg-Lys-(DABCYL)-Asn-Leu-Val-Tyr-Met-Val-Thr-Gly-Asp-(EDANS)-Arg-COOH (H-RK(DABCYL)NLVYMVTGD(EDANS)R-OH; SMILES CSCC[C@H](NC(=O)[C@H](Cc1ccc(O)cc1)NC(=O)[C@@H](NC(=O)[C@H](CC(C)C)NC(=O)[C@H](CC(N)=O)NC(=O)[C@H](CCCCNC(=O)c1ccc(/N=N/c2ccc(N(C)C)cc2)cc1)NC(=O)[C@@H](N)CCCNC(=N)N)C(C)C)C(=O)N[C@H](C(=O)N[C@H](C(=O)NCC(=O)N[C@@H](CC(=O)NCCNc1cccc2c(S(=O)(=O)O)cccc12)C(=O)N[C@@H](CCCNC(=N)N)C(=O)O)[C@@H](C)O)C(C)C) [FRET substrate made for American Diagnostica Inc]
[2]
  fluorescence on incubation of platelets with FRET substrate (cleavage by platelet ADAMTS13): increased fluorescence over time

## activated Factor XI
Platelet ADAMTS13 [3]
  ADAMTS13 activity towards LVY-AMC substrate: ADAMTS13 activity was significantly increased (by approximately 8-fold) towards LVY-AMC substrate upon treatment of platelets with FXIa

B1: platelet ADAMTS13 (protein)
chain: T1 sequence
Leu-Val-Tyr-AMC
  fluorescence over time (LVY-AMC cleavage): the activity in platelets was due to ADAMTS13 cleaving the LVY-AMC substrate
[4]
  fluorescence over time (FRET substrate cleavage): incubation of platelets with NH2-Arg-Lys(DABCYL)-NLVYMVTGD(EDANS)-Arg-COOH results in increased fluorescence over time

B2: recombinant ADAMTS13 (protein)
chain: T1 sequence
Suc-Leu-Leu-Val-Tyr-AMC
  fluorescence signal (Suc-LLVY-AMC cleavage): a greater fluorescence signal was produced by the supernatant from transfected cells verses supernatant from mock transfected cells
